Values joined by “and” are separate entries in the source; they are usually repeats but may differ in a detail not shown here. Equal entries are not always repeated. Where two headings read alike, the source gives them in different places.

The target of data set [1] is T1, ADH (Polaromonas sp.) (Polaromonas sp., UniProt Q126F5).
T1 sequence (Q126F5 1-267): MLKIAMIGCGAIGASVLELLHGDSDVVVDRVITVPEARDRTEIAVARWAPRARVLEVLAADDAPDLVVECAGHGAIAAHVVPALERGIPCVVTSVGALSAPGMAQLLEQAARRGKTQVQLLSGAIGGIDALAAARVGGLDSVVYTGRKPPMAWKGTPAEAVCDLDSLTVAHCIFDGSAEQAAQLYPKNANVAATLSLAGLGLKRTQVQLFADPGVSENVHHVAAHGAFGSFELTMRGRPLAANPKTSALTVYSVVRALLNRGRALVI
The data set can be described thus: Screening of substrate specificity, ADH. The conditions noted are these: 20 mM substrate; for Deamination activity, ADH: relative to aspartate, 2 mM NAD^+, pH 9.8; for Amination activity, ADH: relative to oxaloacetate, […] NADH, pH 9.

Data set [2] concerns ADH-Re. Put plainly: Screening of substrate specificity, ADH-Re. The following applies: 20 mM substrate; for Deamination activity, ADH-Re: relative to aspartate, 2 mM NAD^+, pH 9.8; for Amination activity, ADH-Re: relative to oxaloacetate, […] NADH, pH 9.
In data set [3] the test system is ADH-Bj. The data set can be described thus: Screening of substrate specificity, ADH-Bj. The conditions noted are these: relative to aspartate; 20 mM substrate, 2 mM NADP^+, pH 9.8.
In data set [4] the test system is ADH1-Rp. Put plainly: Screening of substrate specificity, ADH1-Rp. The following applies: relative to aspartate; 20 mM substrate, 2 mM NADP^+, pH 9.8.
Data set [5] has as its target T2, purified ADH (Polaromonas sp.) (Polaromonas sp., UniProt Q126F5).
T2 sequence (Q126F5 1-267): T1 sequence (Q126F5 1-267)
The data set can be described thus: Screening of alternative substrates for purified ADH. The conditions noted are these: 10 mM, 29° C.; for ability to replace aspartic acid in reverse reaction: 1 mM NAD^+; for ability to replace oxaloacetate in forward reaction: […] NADH, 50 mM NH4Cl.

In data set [6] the target is T3, Polaromonas sp. aspartate dehydrogenase (Polaromonas sp., UniProt Q126F5).
T3 sequence (Q126F5 1-267): T1 sequence (Q126F5 1-267)
The data set can be described thus: Regulatory properties of the ADH. The conditions noted are these: addition of 1 mM; for effect on ADH activity in forward and reverse reactions: 29° C., pH 9.8.

For data set [7], the target named is T4, Polaromonas sp. ADH (Polaromonas sp., UniProt Q126F5).
T4 sequence (Q126F5 1-267): T1 sequence (Q126F5 1-267)
The following applies: Oxaloacetate reductive amination; Michaelis-Menten plots.

Data set [8] has as its target T5, Ralstonia eutropha ADH-Re (Cupriavidus necator, UniProt Q0K391).
T5 sequence (Q0K391 with tags, fused parts or gaps): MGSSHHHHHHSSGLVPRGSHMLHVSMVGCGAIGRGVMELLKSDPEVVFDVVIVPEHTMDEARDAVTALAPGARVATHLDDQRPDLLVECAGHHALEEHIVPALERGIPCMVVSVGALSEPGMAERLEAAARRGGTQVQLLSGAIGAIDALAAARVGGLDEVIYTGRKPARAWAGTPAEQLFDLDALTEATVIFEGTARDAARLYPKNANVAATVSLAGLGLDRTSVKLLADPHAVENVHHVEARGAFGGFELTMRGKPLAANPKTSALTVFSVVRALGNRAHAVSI

Data set [9] has as its target Bradyrhizobium japonicum ADH-Bj (Bradyrhizobium diazoefficiens, UniProt Q89FY1). The data set can be described thus: Kinetic parameters of the Bradyrhizobium japonicum ADH-Bj. The conditions noted are these: Oxaloacetate reductive amination.
Data set [10] has as its target Rhodopseudomonas palustris ADH1-Rp (Rhodopseudomonas palustris, UniProt Q2J3V1). Put plainly: Kinetic parameters of the Rhodopseudomonas palustris AspDH 1. The conditions noted are these: Oxaloacetate reductive amination.
Substrate in data set [11]: NC(=O)c1ccc[n+]([C@@H]2O[C@H](COP(=O)([O-])OP(=O)(O)OC[C@H]3O[C@@H](n4cnc5c(N)ncnc54)[C@H](O)[C@@H]3O)[C@@H](O)[C@H]2O)c1
Put plainly: purified protein, by the assay type.

Substrate in data set [12]: O=C(O)CC(=O)C(=O)O
Put plainly: purified protein, by the assay type. The conditions noted are these: other: Oxaloacetate reductive amination; Michaelis-Menten plots.

Substrate in data set [13]: N[C@@H](CC(=O)O)C(=O)O
The data set can be described thus: purified protein, by the assay type. The following applies: other: Aspartate oxidative deamination; Michaelis-Menten plots.

Where [14] appears, read: Oxaloacetate reductive amination, Michaelis-Menten plots.
Where [15] appears, read: other: Aspartic acid oxidative deamination.
The mark [16] stands for this setting: other: Aspartic acid oxidative deamination, Michaelis-Menten plots.
Setting [17] is: other: Aspartate oxidative deamination, Michaelis-Menten plots.
[18] abbreviates: other: Aspartate oxidative deamination.

On to `C[C@H](N)C(=O)O` [Alanine], for which the “Deamination activity, ADH” value in data set [1] is reported as “na (no activity (<2%))”. In data set [2], the “Deamination activity, ADH-Re” value was “na (no activity (<2%))”. Moreover, the “Deamination activity, ADH-Bj” value in [3] was “na (no activity (<2%))”. Also, the “Deamination activity, ADH1-Rp” value in data set [4] is reported as “na (no activity (<2%))”. For the same molecule, in data set [5], the “ability to replace aspartic acid in reverse reaction” value (“ability to replace aspartic acid” below) is given as “No activity”.

In the case of `N[C@@H](CCC(=O)O)C(=O)O` [Glutamate], the “effect on ADH activity in forward and reverse reactions” value (“effect on ADH activity” for short) in [6] is given as “not significantly affected”. The “Deamination activity, ADH” value in [1] is listed as “na (no activity (<2%))”. The “Deamination activity, ADH-Re” value in data set [2] is “na (no activity (<2%))”. Also, the “Deamination activity, ADH-Bj” value in [3] was 5.5 ± 1.1%. The “Deamination activity, ADH1-Rp” value in [4] is on record as 4.5 ± 0.4%. Moreover, in data set [5], the “ability to replace aspartic acid” value is given as “No activity”.

As for `Cl.N` [NH4Cl], the Michaelis constant (Km) was 33 mM in data set [7]; 12 mM and 11.9 mM in data set [8] (setting [14]); 4.3 mM and 4 mM in data set [9]; 11 mM and 11.3 mM in data set [10]. For the same molecule, the Vmax in data set [7] is 83 ± 3 µmol/min/mg; in data set [8] (setting [14]), 113 ± 4 µmol/min/mg; in data set [9], 48 ± 2 µmol/min/mg; in data set [10], 20.2 ± 0.6 µmol/min/mg. Also, the catalytic constant (kcat) in data set [7] came to 2280 ± 80 min⁻¹; in [8] (setting [14]), 3400 ± 120 min⁻¹; in data set [9] it was 1480 ± 50 min⁻¹; in [10] it was 620 ± 20 min⁻¹. For the same molecule, the “inhibition of the reverse reaction of aspartic acid deamination” value in data set [6] is given as “did not significantly inhibit”.

In the case of `O=C(O)CC(=O)C(=O)O` [Oxaloacetate], the “Amination activity, ADH” value in [1] is on record as 100 ± 3%.

With `CC(=O)SCCNC(=O)CCNC(=O)[C@H](O)C(C)(C)COP(=O)(O)OP(=O)(O)OC[C@H]1O[C@@H](n2cnc3c(N)ncnc32)[C@H](O)[C@@H]1OP(=O)(O)O` [acetyl-coenzyme A], in data set [6], the “effect on ADH activity” value was “not significantly affected”.

Take `NC(=O)C[C@H](N)C(=O)O` [asparagine]: the “ability to replace aspartic acid” value in [5] was “No activity”.

Regarding `CC(C)(COP(=O)(O)OP(=O)(O)OC[C@H]1O[C@@H](n2cnc3c(N)ncnc32)[C@H](O)[C@@H]1OP(=O)(O)O)[C@@H](O)C(=O)NCCC(=O)NCCS` [coenzyme A], the “effect on ADH activity” value in data set [6] is listed as “not significantly affected”.

With `CC[C@H](C)[C@H](N)C(=O)O` [isoleucine], in [5], the “ability to replace aspartic acid” value is “No activity”.

Take `CC(C)C(=O)C(=O)O` [ketoisovaleriate]: the “Amination activity, ADH” value in data set [1] is listed as “na (no activity (<0.2%))”. In data set [2], the “Amination activity, ADH-Re” value is “na (no activity (<0.2%))”. For the same molecule, the “ability to replace oxaloacetate in forward reaction” value (shortened to “ability to replace oxaloacetate”) in data set [5] is recorded as “No activity”.

With `CCC(C)C(=O)C(=O)O` (centres unmarked) [ketomethylvaleriate], the “Amination activity, ADH” value in [1] was “na (no activity (<0.2%))”. Besides, the “Amination activity, ADH-Re” value in data set [2] is “na (no activity (<0.2%))”. Moreover, in data set [5], the “ability to replace oxaloacetate” value is listed as “No activity”.

On to `O=C(O)CC(O)C(=O)O` (centres unmarked) [malate], for which the “effect on ADH activity” value in data set [6] was “not significantly affected”.

For the molecule `CC(=O)C(=O)O` [pyruvate], in data set [1], the “Amination activity, ADH” value was “na (no activity (<0.2%))”. For the same molecule, the “ability to replace oxaloacetate” value in data set [5] was “No activity”.

For the molecule `CC(C)[C@H](N)C(=O)O` [valine], the “ability to replace aspartic acid” value in data set [5] is reported as “No activity”.

Regarding `CCC(N)C(=O)O` (stereo not drawn) [α-aminobutyrate], in data set [5], the “ability to replace aspartic acid” value is reported as “No activity”.

Take `CCC(=O)C(=O)O` [α-ketobutyrate]: the “Amination activity, ADH” value in data set [1] is on record as “na (no activity (<0.2%))”. Moreover, the “Amination activity, ADH-Re” value in [2] is “na (no activity (<0.2%))”. The “ability to replace oxaloacetate” value in [5] is “No activity”.

For the molecule `O=C(O)CCC(=O)C(=O)O` [α-ketoglutarate], in [2], the “Amination activity, ADH-Re” value is listed as “na (no activity (<0.2%))”.

With NADPH, the Km in [8] (amination, summary range over Hill and Michaelis-Menten fits) was 0.39 to 0.9 mM.

B1: Rhodopseudomonas palustris ADH1-Rp (Rhodopseudomonas palustris HaA2) (protein)
chain: MRSGRAPQRVAIAGLGAIGKAIARELDRGLDGLTLGAVASGDPEKHRAFLDGLRTTPPVVPLDQLHAHADLVIEAAPSRLLRAIVEPFVSRGRTAIVLSAAALLQNEDLIDLANLNGGQIIVPTGALIGLDAVTAAAVGTIHSVRMITRKPVDGLRGAPFIVDNGIDLDGLREPLKLFEGTAREAGKGFPANLNVAVALSLAGIGPDRTMVEIWADPGVTRNTHRIEVDADSARFAMTIENVPSDNPRTGLITPLSVIALLRKQSAALRVGT
B1: in [11] (setting [15]), the Km was 7.0 ± 0.3 mM, the Vmax was determined as 3.11 µmol/min/mg, the turnover number (kcat) amounted to 1.58 ± 0.0333 s⁻¹ and the kcat/Km turned out to be 227 ± 15 M⁻¹ s⁻¹.

B2: Polaromonas sp. ADH (Polaromonas sp. JS666) (protein)
chain: T1 sequence (Q126F5 1-267)
Regarding B2, in data set [11] (setting [16]), the Km is given as 0.424 ± 0.010 mM, the Vmax was found to be 32 µmol/min/mg and the kcat was determined as 14.68 ± 0.1 s⁻¹. Further, in [12], the Km is 2.2 ± 0.3 mM, the Vmax was 74 µmol/min/mg and the turnover number (kcat) amounted to 33.8 ± 1.5 s⁻¹.

B3: Ralstonia eutropha ADH-Re (Cupriavidus necator H16) (protein)
chain: T5 sequence (Q0K391 with tags, fused parts or gaps)
On to B3, for which, in data set [11] (setting [17]), the Michaelis constant (Km) was determined as 1.7 ± 0.4 mM, the Vmax worked out at 37 µmol/min/mg and the turnover number (kcat) stood at 18.7 ± 1.5 s⁻¹. For the same molecule, in [13], the Km was determined as 13 ± 3 mM, the maximum rate (Vmax) came to 23 µmol/min/mg, the kcat was 11.5 ± 1 s⁻¹ and the kcat/Km came out at 833 M⁻¹ s⁻¹. In addition, in data set [12], the Km is on record as 3.3 ± 0.4 mM and the kcat is 58.3 ± 2.33 s⁻¹.

B4: Bradyrhizobium japonicum ADH-Bj (Bradyrhizobium diazoefficiens USDA 110) (protein)
chain: MGSSHHHHHHSSGDRRWKVMTDQTASSELRVAIAGLGSIGTKIAAALDQGEGLTLSAVAVRDPAKHQAFLNGLRRPPQVLPIDQLGEAADIVVECAPSSQLRAIVEPAVKRGKAAVVVSVGGLLDNFDLVDLARANGGRIIVPTGALIGLDAVNAAVIGTIHSVKMVTRKPIDGLKGAPFIVHNNIDIDTLREPLKLFEGTAREAAKGFPANLNVAVALSLAGVGPDRTSVQIWADPTVTRNVHRIEVEADSARFSMSIENIPSENPKTGLITALSVIALLRKQRATLCVGT
Turning to B4, in [11] (setting [18]), the Km came out at 10 ± 3 mM, the maximal velocity (Vmax) came to 6.5 µmol/min/mg, the kcat amounted to 3.33 ± 0.5 s⁻¹ and the kcat/Km is 333 M⁻¹ s⁻¹.

Source of the values: patent US9051591B2, “Bacterium of enterobacteriaceae family producing L-aspartic acid or L-aspartic acid-derived metabolites and a method for producing L-aspartic acid or L-aspartic acid-derived metabolites” (AJINOMOTO CO., INC., priority 2010, dated 2015).
